Laboratory results: ChEMBL document CHEMBL1138731, “Conversion of human-selective PPARalpha agonists to human/mouse dual agonists: a molecular modeling analysis” (Bioorg Med Chem Lett, 2004)
pEC50, pIC50: −log10 of the molar value.

How the values were obtained:
[1] = target: T1, Peroxisome proliferator-activated receptor alpha (Mus musculus, UniProt P23204); assay: Transactivation activity for mouse Peroxisome proliferator activated receptor alpha
T1 sequence (P23204 whole entry): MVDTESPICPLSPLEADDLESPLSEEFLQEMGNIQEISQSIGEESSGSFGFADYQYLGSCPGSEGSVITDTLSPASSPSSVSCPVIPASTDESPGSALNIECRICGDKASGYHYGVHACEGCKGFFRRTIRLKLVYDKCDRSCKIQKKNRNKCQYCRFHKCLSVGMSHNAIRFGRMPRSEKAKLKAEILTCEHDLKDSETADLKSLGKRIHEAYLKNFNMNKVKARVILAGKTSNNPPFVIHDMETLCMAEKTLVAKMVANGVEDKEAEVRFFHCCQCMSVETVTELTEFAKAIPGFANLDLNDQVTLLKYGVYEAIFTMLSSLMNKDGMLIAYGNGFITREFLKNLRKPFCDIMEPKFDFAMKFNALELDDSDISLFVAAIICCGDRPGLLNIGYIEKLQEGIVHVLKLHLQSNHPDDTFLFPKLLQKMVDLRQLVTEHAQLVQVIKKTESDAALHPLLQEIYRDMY

[2] = target: T1, Peroxisome proliferator-activated receptor alpha; assay: In vitro inhibition of mouse Peroxisome proliferator activated receptor alpha
[3] = target: T2, Peroxisome proliferator-activated receptor alpha (Homo sapiens, UniProt Q07869); assay: In vitro inhibition of human Peroxisome proliferator activated receptor alpha
T2 sequence (Q07869 whole entry): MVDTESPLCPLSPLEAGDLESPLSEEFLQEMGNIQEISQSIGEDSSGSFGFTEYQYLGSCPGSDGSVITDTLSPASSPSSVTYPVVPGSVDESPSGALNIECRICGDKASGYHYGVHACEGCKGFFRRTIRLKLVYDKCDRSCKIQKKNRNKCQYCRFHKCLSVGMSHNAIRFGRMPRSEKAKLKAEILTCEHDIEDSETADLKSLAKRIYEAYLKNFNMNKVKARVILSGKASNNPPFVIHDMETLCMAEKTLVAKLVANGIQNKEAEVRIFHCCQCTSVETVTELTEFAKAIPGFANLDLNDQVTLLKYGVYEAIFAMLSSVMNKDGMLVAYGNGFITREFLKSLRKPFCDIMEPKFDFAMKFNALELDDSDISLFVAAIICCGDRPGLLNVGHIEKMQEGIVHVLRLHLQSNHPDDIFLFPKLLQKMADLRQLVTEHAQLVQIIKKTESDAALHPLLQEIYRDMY

[4] = target: T2, Peroxisome proliferator-activated receptor alpha; assay: Transactivation activity for human Peroxisome proliferator activated receptor alpha
[5] = test system: Mus musculus; assay: Effect on level of triglyceride at a dose of 3 mg/kg in mice treated for 7 days; format: functional

SMILES	pEC50 [1]	pIC50 [2]	pIC50 [3]	pEC50 [4]	Triglyceride level [5] [%]
Cc1oc(-c2ccc(-c3ccccc3)cc2)nc1CCOc1ccc(CC(C)(Oc2ccccc2)C(=O)O)cc1 (centres undefined)	5.63	5.15			
Cc1oc(-c2ccc(-c3ccccc3)cc2)nc1CCOc1ccc(CC(C)(Oc2ccc(C(C)(C)C)cc2)C(=O)O)cc1 (centres undefined)	5.93	6.15		6.59	
Cc1ccc(OC(C)(Cc2ccc(OCCc3nc(-c4ccc(-c5ccccc5)cc4)oc3C)cc2)C(=O)O)cc1 (centres undefined)	5.98	5.84	6.43	7.41	
Cc1oc(-c2ccccc2)nc1CCOc1ccc(CC(C)(Oc2ccccc2)C(=O)O)cc1 (centres undefined)					~56

Further lines, with some results ahead:

pEC50 [1]	pIC50 [2]	pIC50 [3]	pEC50 [4]	SMILES	Triglyceride level [5] [%]
6.68	6.29	6.83	7.96	Cc1oc(-c2ccccc2)nc1CCOc1ccc(CC(C)(Oc2ccc(C(C)(C)C)cc2)C(=O)O)cc1 (centres undefined)	
6.82	6.28	6.51	7.64	Cc1ccc(OC(C)(Cc2ccc(OCCc3nc(-c4cccc(-c5ccccc5)c4)oc3C)cc2)C(=O)O)cc1 (centres undefined)	
6.23	5.86	7.19	8.15	Cc1ccc(OC(C)(Cc2ccc(OCCc3nc(-c4ccccc4)oc3C)cc2)C(=O)O)cc1 (centres undefined)	
7.04	6.84	6.88	7.31	Cc1oc(-c2cccc(-c3ccccc3)c2)nc1CCOc1ccc(CC(C)(Oc2ccc(C(C)(C)C)cc2)C(=O)O)cc1 (centres undefined)	~39
6.76	6.39			Cc1oc(-c2cccc(-c3ccccc3)c2)nc1CCOc1ccc(CC(C)(Oc2ccccc2)C(=O)O)cc1 (centres undefined)	
